Measured values reported in patent US9023789B2, “Amylin analogs and pharmaceutical compositions thereof” (Novo Nordisk A/S, priority 2012, dated 2015).
Numbered stars: 1 amine (or outer) side, 2 acyl side, 3 side chain; on linkers, the order of the positions; unused ones are H or OH. Bridge positions count the residues as written; N and C are the ends. Side chains are listed from the residue outwards. Peptide text beside a SMILES is read from it. * marks the point of attachment. C20 diacid = O=C(O)CCCCCCCCCCCCCCCCCCC(=O)*; γGlu = O=C(O)[C@H](CCC(=O)[*:2])N[*:1]; AEEA = NCCOCCOCC(=O)O

Columns and labels:
[1] = target: T1, rat amylin receptor (rat calcitonin receptor + rat RAMP 3) (Rattus norvegicus, UniProt P32214+Q9JJ73); experiment: ASSAY (VI) binding to the rat amylin receptor; details: for IC50: binding to rat amylin receptor, read-out: rAmylin-R bind IC50
T1 construct: expressed in transfected cells; host or cells: BHK tk'ts 13 (transient, FuGENE 6), membranes
T1 sequence (P32214 25-479 isoform P32214-2 limits assumed): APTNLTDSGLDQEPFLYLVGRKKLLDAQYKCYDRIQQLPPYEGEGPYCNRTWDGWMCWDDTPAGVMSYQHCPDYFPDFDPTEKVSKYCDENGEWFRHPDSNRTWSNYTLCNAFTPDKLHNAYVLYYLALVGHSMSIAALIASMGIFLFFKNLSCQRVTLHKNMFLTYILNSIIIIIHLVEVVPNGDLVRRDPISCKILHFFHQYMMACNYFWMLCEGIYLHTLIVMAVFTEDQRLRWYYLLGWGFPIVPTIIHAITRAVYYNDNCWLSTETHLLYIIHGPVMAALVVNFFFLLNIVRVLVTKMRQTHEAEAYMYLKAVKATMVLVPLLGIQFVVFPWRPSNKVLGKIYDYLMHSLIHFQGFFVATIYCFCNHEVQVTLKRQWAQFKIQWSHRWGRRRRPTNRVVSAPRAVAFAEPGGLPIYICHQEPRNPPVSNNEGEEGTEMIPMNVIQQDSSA
T1 sequence (Q9JJ73 23-147 partner): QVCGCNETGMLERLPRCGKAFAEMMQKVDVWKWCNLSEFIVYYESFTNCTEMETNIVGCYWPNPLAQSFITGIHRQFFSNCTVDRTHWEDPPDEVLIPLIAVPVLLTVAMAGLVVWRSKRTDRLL
Method in brief: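 The cell-membrane assay assessed binding at the rat amylin receptor. BHK tk′ts 13 cells were transfected transiently with rat calcitonin receptor, with FuGENE® 6 (Roche) as the transfection reagent, used per the manufacturer's recommendations. Approximately 48 hours after transfection the cells were harvested, and membranes were prepared for measuring binding.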

[2] = ASSAY (III) ThT fibrillation assay for physical stability; type: physicochemical
Method in brief: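 Physical stability scored by ThT fluorescence (444 nm excitation, 485 nm emission) tracked every 20 min during 37 °C incubation with 960 rpm shaking, ThT at 1 μM final. Values are replicate means with SD at chosen times; HPLC against pramlintide standard gives initial and post-assay soluble concentrations.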

[3] = Table 7, rat binding selectivity, rCTR IC50 / rAmylin-R IC50
[4] = Table 7a (preferred compounds), rat binding selectivity, rCTR IC50 / rAmylin-R IC50
[5] = ratio of rCTR bind IC50 to rAmylin-R bind IC50

CC[C@H](C)[C@H](NC(=O)[C@H](C)NC(=O)CNC(=O)[C@H](Cc1ccccc1)NC(=O)[C@H](CC(N)=O)NC(=O)[C@@H]1CCCN1C(=O)[C@H](CO)NC(=O)[C@H](CO)NC(=O)[C@H](Cc1c[nH]cn1)NC(=O)[C@H](CCCNC(=N)N)NC(=O)[C@H](CC(C)C)NC(=O)[C@H](Cc1ccccc1)NC(=O)[C@H](Cc1c[nH]cn1)NC(=O)[C@H](C)NC(=O)[C@H](CC(C)C)NC(=O)[C@H](CCCNC(=N)N)NC(=O)[C@H](CCC(N)=O)NC(=O)[C@@H](NC(=O)[C@H](C)NC(=O)[C@@H]1CSSC[C@H](NC(=O)[C@@H](N)CCCCNC(=O)COCCOCCNC(=O)CC[C@H](NC(=O)CCCCCCCCCCCCCCCCCCC(=O)O)C(=O)O)C(=O)N[C@@H](CC(N)=O)C(=O)N[C@@H]([C@@H](C)O)C(=O)N[C@@H](C)C(=O)N[C@@H]([C@@H](C)O)C(=O)N1)[C@@H](C)O)C(=O)N1CCC[C@H]1C(=O)N[C@@H](CO)C(=O)N[C@@H](CO)C(=O)N[C@H](C(=O)N1CCC[C@H]1C(=O)N[C@H](C(=O)NCC(=O)N[C@@H](CO)C(=O)N[C@@H](CC(N)=O)C(=O)N[C@H](C(=O)N[C@@H](Cc1ccc(O)cc1)C(N)=O)[C@@H](C)O)C(C)C)[C@@H](C)O [Example 61] (H-K([AEEA-γGlu-C20 diacid])CNTATCATQRLAHFLRHSSPNFGAIPSSTPVGSNTY-NH2; disulfide 2-7 (inferred))
IC50 ([1]; Table 7): 842 pM
Ratio rCT/rAmylin binding [1, 3]: 39.7
Ratio rCT/rAmylin binding [1, 4]: 39.7
Ratio rCT/rAmylin binding [1, 5]: 39.7
ThT pH 4.0 lag time (h) [2]: 45 h

CC[C@H](C)[C@H](NC(=O)[C@H](C)NC(=O)CNC(=O)[C@H](Cc1ccccc1)NC(=O)[C@H](CC(N)=O)NC(=O)[C@@H]1CCCN1C(=O)[C@H](CO)NC(=O)[C@H](CO)NC(=O)[C@H](Cc1c[nH]cn1)NC(=O)[C@H](CCCNC(=N)N)NC(=O)[C@H](CC(C)C)NC(=O)[C@H](Cc1ccccc1)NC(=O)[C@H](Cc1c[nH]cn1)NC(=O)[C@H](C)NC(=O)[C@H](CC(C)C)NC(=O)[C@H](CCCNC(=N)N)NC(=O)[C@H](CCC(N)=O)NC(=O)[C@@H](NC(=O)[C@H](C)NC(=O)[C@@H]1CSSC[C@H](NC(=O)[C@@H](N)CCCCNC(=O)CC[C@H](NC(=O)CCCCCCCCCCCCCCCCCCC(=O)O)C(=O)O)C(=O)N[C@@H](CC(N)=O)C(=O)N[C@@H]([C@@H](C)O)C(=O)N[C@@H](C)C(=O)N[C@@H]([C@@H](C)O)C(=O)N1)[C@@H](C)O)C(=O)N1CCC[C@H]1C(=O)N[C@@H](CO)C(=O)N[C@@H](CO)C(=O)N[C@H](C(=O)N1CCC[C@H]1C(=O)N[C@H](C(=O)NCC(=O)N[C@@H](CO)C(=O)N[C@@H](CC(N)=O)C(=O)N[C@H](C(=O)N[C@@H](Cc1ccc(O)cc1)C(N)=O)[C@@H](C)O)C(C)C)[C@@H](C)O [Example 62] (H-K([γGlu-C20 diacid])CNTATCATQRLAHFLRHSSPNFGAIPSSTPVGSNTY-NH2; disulfide 2-7; N-terminus assumed)
IC50 ([1]; Table 7): 420 pM
Ratio rCT/rAmylin binding [1, 3]: 42.8
Ratio rCT/rAmylin binding [1, 4]: 42.8
Ratio rCT/rAmylin binding [1, 5]: 42.8
ThT pH 4.0 lag time (h) [2]: 45 h

CC[C@H](C)[C@H](NC(=O)[C@H](C)NC(=O)CNC(=O)[C@H](Cc1ccccc1)NC(=O)[C@H](CC(N)=O)NC(=O)[C@@H]1CCCN1C(=O)[C@H](CO)NC(=O)[C@H](CO)NC(=O)[C@H](Cc1c[nH]cn1)NC(=O)[C@H](CCCNC(=N)N)NC(=O)[C@H](CC(C)C)NC(=O)[C@H](Cc1ccccc1)NC(=O)[C@H](CCCNC(=N)N)NC(=O)[C@H](C)NC(=O)[C@H](CC(C)C)NC(=O)[C@H](CCCNC(=N)N)NC(=O)[C@H](CCC(N)=O)NC(=O)[C@@H](NC(=O)[C@H](C)NC(=O)[C@@H]1CSSC[C@H](NC(=O)[C@@H](N)CCCCNC(=O)COCCOCCNC(=O)CC[C@H](NC(=O)CCCCCCCCCCCCCCCCCCC(=O)O)C(=O)O)C(=O)N[C@@H](CC(N)=O)C(=O)N[C@@H]([C@@H](C)O)C(=O)N[C@@H](C)C(=O)N[C@@H]([C@@H](C)O)C(=O)N1)[C@@H](C)O)C(=O)N1CCC[C@H]1C(=O)N[C@@H](CO)C(=O)N[C@@H](CO)C(=O)N[C@H](C(=O)N1CCC[C@H]1C(=O)N[C@H](C(=O)NCC(=O)N[C@@H](CO)C(=O)N[C@@H](CC(N)=O)C(=O)N[C@H](C(=O)N[C@@H](Cc1ccc(O)cc1)C(N)=O)[C@@H](C)O)C(C)C)[C@@H](C)O [Example 64] (H-K([AEEA-γGlu-C20 diacid])CNTATCATQRLARFLRHSSPNFGAIPSSTPVGSNTY-NH2; disulfide 2-7; N-terminus assumed)
IC50 ([1]; Table 7): 1970 pM
Ratio rCT/rAmylin binding [1, 3]: 64.7
Ratio rCT/rAmylin binding [1, 4]: 64.7
Ratio rCT/rAmylin binding [1, 5]: 64.7
ThT pH 4.0 lag time (h) [2]: 45 h

CC[C@H](C)[C@H](NC(=O)[C@H](C)NC(=O)CNC(=O)[C@H](Cc1ccccc1)NC(=O)[C@H](CC(N)=O)NC(=O)[C@@H]1CCCN1C(=O)[C@H](CO)NC(=O)[C@H](CO)NC(=O)[C@H](Cc1c[nH]cn1)NC(=O)[C@H](CCCNC(=N)N)NC(=O)[C@H](CC(C)C)NC(=O)[C@H](Cc1ccccc1)NC(=O)[C@H](CCCNC(=N)N)NC(=O)[C@H](C)NC(=O)[C@H](CC(C)C)NC(=O)[C@H](CCCNC(=N)N)NC(=O)[C@H](CCC(N)=O)NC(=O)[C@@H](NC(=O)[C@H](C)NC(=O)[C@@H]1CSSC[C@H](NC(=O)[C@@H](N)CCCCNC(=O)CC[C@H](NC(=O)CCCCCCCCCCCCCCCCCCC(=O)O)C(=O)O)C(=O)N[C@@H](CC(N)=O)C(=O)N[C@@H]([C@@H](C)O)C(=O)N[C@@H](C)C(=O)N[C@@H]([C@@H](C)O)C(=O)N1)[C@@H](C)O)C(=O)N1CCC[C@H]1C(=O)N[C@@H](CO)C(=O)N[C@@H](CO)C(=O)N[C@H](C(=O)N[C@@H](CC(N)=O)C(=O)N[C@H](C(=O)NCC(=O)N1CCC[C@H]1C(=O)N[C@@H](CC(N)=O)C(=O)N[C@H](C(=O)N[C@@H](Cc1ccc(O)cc1)C(N)=O)[C@@H](C)O)C(C)C)[C@@H](C)O [Example 65] (H-K([γGlu-C20 diacid])CNTATCATQRLARFLRHSSPNFGAIPSSTNVGPNTY-NH2; disulfide 2-7 (inferred); N-terminus assumed)
IC50 ([1]; Table 7): 1160 pM
Ratio rCT/rAmylin binding [1, 3]: 93.2
Ratio rCT/rAmylin binding [1, 4]: 93.2
Ratio rCT/rAmylin binding [1, 5]: 93.2
ThT pH 4.0 lag time (h) [2]: 45 h

CC[C@H](C)[C@H](NC(=O)[C@H](C)NC(=O)CNC(=O)[C@H](Cc1ccccc1)NC(=O)[C@H](CC(N)=O)NC(=O)[C@@H]1CCCN1C(=O)[C@H](CO)NC(=O)[C@H](CO)NC(=O)[C@H](Cc1c[nH]cn1)NC(=O)[C@H](CCCNC(=N)N)NC(=O)[C@H](CC(C)C)NC(=O)[C@H](Cc1ccccc1)NC(=O)[C@H](Cc1c[nH]cn1)NC(=O)[C@H](C)NC(=O)[C@H](CC(C)C)NC(=O)[C@H](CCCNC(=N)N)NC(=O)[C@H](CCC(N)=O)NC(=O)[C@@H](NC(=O)[C@H](C)NC(=O)[C@@H]1CSSC[C@H](NC(=O)[C@@H](N)CCCCNC(=O)CC[C@H](NC(=O)CCCCCCCCCCCCCCCCCCC(=O)O)C(=O)O)C(=O)N[C@@H](CC(N)=O)C(=O)N[C@@H]([C@@H](C)O)C(=O)N[C@@H](C)C(=O)N[C@@H]([C@@H](C)O)C(=O)N1)[C@@H](C)O)C(=O)N1CCC[C@H]1C(=O)N[C@@H](CO)C(=O)N[C@@H](CO)C(=O)N[C@H](C(=O)N[C@@H](CC(N)=O)C(=O)N[C@H](C(=O)NCC(=O)N1CCC[C@H]1C(=O)N[C@@H](CC(N)=O)C(=O)N[C@H](C(=O)N[C@@H](Cc1ccc(O)cc1)C(N)=O)[C@@H](C)O)C(C)C)[C@@H](C)O [Example 67] (H-K([γGlu-C20 diacid])CNTATCATQRLAHFLRHSSPNFGAIPSSTNVGPNTY-NH2; disulfide 2-7 (inferred); N-terminus assumed)
IC50 ([1]; Table 7): 172 pM
Ratio rCT/rAmylin binding [1, 3]: 85.4
Ratio rCT/rAmylin binding [1, 4]: 85.4
Ratio rCT/rAmylin binding [1, 5]: 85.4
ThT pH 4.0 lag time (h) [2]: 26 h
